Consider nine molecules from PubChem BioAssay (NCI).

SMILES strings stand for the structures.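 Five compound concentrations were applied to cells in 96-well plates for 48 hours; endpoints were derived by simple linear interpolation of the resulting dose-response curve. GI50 = concentration required for 50% inhibition of growth. TGI denotes the concentration required for complete inhibition of growth.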

Holding throughout (test): growth of human tumour cells (NCI), 48 h
The subject of test [1] is LOX IMVI melanoma.
Test [2] concerns MALME-3M melanoma.
The subject of test [3] is NCI-H522 lung.
For test [4], the system named is OVCAR-3 ovarian.
The test system of test [5] is RXF 393 renal.
In test [6] the test system is SF-268 CNS.
Test [7] has as its system SK-MEL-28 melanoma.
Test [8] concerns SK-MEL-5 melanoma.
Test [9] deals with SN12C renal.
The subject of test [10] is SNB-19 CNS.
Test [11] has as its system SR leukemia.
Test [12] has as its system T-47D breast.
The test system of test [13] is UACC-62 melanoma.

In the case of `Cc1ccc2c(n1)C(=O)c1cc(C)c(C)cc1C2=O`, the TGI in test [1] was greater than 100 µM; in [2] it was greater than 100 µM; in test [3] it was 56.8 µM; in [4], 67.3 µM; in [5] it was greater than 100 µM; in test [6], greater than 100 µM. The TGI in test [7] was greater than 100 µM; in test [8], 79.1 µM; in [9] it was greater than 100 µM; in test [10], greater than 100 µM; in test [11], 85.1 µM; in [12], greater than 100 µM. Further, the TGI in [13] was greater than 100 µM.

Regarding `COc1ccc(-n2c(C)nc3ccc(NC4OC(COC(C)=O)C(OC(C)=O)C(OC(C)=O)C4OC(C)=O)cc3c2=O)cc1` (stereo not drawn), the TGI is greater than 100 µM in [1]; greater than 100 µM in test [2]; 47.5 µM in test [3]; greater than 100 µM in test [4]; 87.4 µM in test [5]; greater than 100 µM in [6]. Also, the TGI in test [7], in test [8], in test [9], in [10], in [11] and in test [12] was greater than 100 µM throughout. Moreover, the TGI in test [13] was greater than 100 µM.

As for `CCOC1OC(CO[Si](C)(C)C(C)(C)C)C(O)CC1n1ccc(=O)[nH]c1=O` (stereo not drawn), the TGI in [1] is 31.6 µM; in test [2] it was greater than 100 µM; in test [3] it was 45.6 µM; in test [4], greater than 100 µM; in test [5], greater than 100 µM; in test [6], greater than 100 µM. For the same molecule, the TGI in test [7], in test [8], in test [9], in test [10], in test [11] and in test [12] was greater than 100 µM in each case. The molecule also returned a TGI in test [13] greater than 100 µM.

Turning to `C=C(Cl)C(Cl)(CBr)CCCC(C)C` (stereo not drawn), the TGI is greater than 100 µM in test [1]; greater than 100 µM in [2]; greater than 100 µM in test [3]; 12.4 µM in [4]; 44.2 µM in test [5]; 40.1 µM in test [6]. Also, the TGI in [7] was 37.3 µM; in [8], greater than 100 µM; in test [9] it was greater than 100 µM; in [10] it was 47.4 µM; in test [11], greater than 100 µM; in test [12] it was greater than 41.4 µM. The TGI in test [13] is greater than 100 µM.

With `CCc1cn(C2CC(CO)C(CO)S2)c(=O)[nH]c1=O` (stereo not drawn), the TGI in test [1], in [2], in [3], in test [4], in [5] and in test [6] was greater than 100 µM each time. Further, the TGI in test [7], in [8], in [9], in [10], in [11] and in [12] was greater than 100 µM each time. For the same molecule, the TGI in [13] was greater than 100 µM. Moreover, the GI50 in test [11] is greater than 100 µM.

Consider `O=C(N/N=C\c1ccc([N+](=O)[O-])cc1)Nc1ccc2ccccc2c1`, for which the TGI in test [1] was greater than 100 µM; in test [2] it was 51.7 µM; in test [3], 68.4 µM; in test [4], greater than 100 µM; in [5], greater than 100 µM; in test [6], greater than 100 µM. The TGI in test [7], in test [8], in test [9], in [10], in test [11] and in [12] was greater than 100 µM throughout. The molecule further had a TGI in [13] greater than 100 µM.

On to `CSc1cc(Cl)c(C(=O)Nc2ccccc2)cc1S(=O)(=O)n1cc[nH]c1=O`, for which the TGI in test [1], in test [2], in test [3], in test [4], in test [5] and in [6] was greater than 100 µM in each case. The TGI in test [7], in test [8], in test [9], in test [10], in [11] and in test [12] was greater than 100 µM each time. Further, in [13], the TGI is greater than 100 µM.

Consider `CCOP(=O)(OCC)/C(C#N)=C/c1cccn1C`, for which the TGI in [1], in test [2], in test [3], in test [4], in test [5] and in test [6] was greater than 100 µM in each case. Moreover, the TGI in test [7], in test [8], in test [9], in [10], in test [11] and in test [12] was greater than 100 µM in each case. This molecule returned a TGI in test [13] greater than 100 µM.

Consider `COc1cc2c(/C=C3/C(=O)Nc4cc(C)c(O)cc43)c(Cl)[nH]c2cc1C`, for which the TGI in test [1] was 35.5 µM; in test [2], 11.6 µM; in test [3], 11.1 µM; in test [4], 3.68 µM; in test [5], 7.1 µM; in test [6] it was 31.9 µM. Besides, the TGI amounted to 18.9 µM in test [7]; 12.5 µM in test [8]; 6.07 µM in test [9]; 14.8 µM in [10]; 2.05 µM in [11]; 18.2 µM in test [12]. Moreover, the TGI in [13] came to 8.77 µM.
